Assay results taken from patent publication US20250082931A1, “Treating Gastric Cancer Using TTFields Combined with XELOX, FOLFOX or the Individual Constituents Thereof” (Novocure GmbH, priority 2019, published 2025).

What was measured:
KATO III cells [1] = assay: Apoptosis analysis by Annexin V / 7AAD staining; assay type: cell-based; conditions: 72 h
Experimental: After 72 h of treatment the media and the cells were collected, and cytotoxicity was determined by cell counts. Cells (including cells from the media) were stained for Annexin V and 7AAD for apoptosis analysis. For the testing of the clonogenic effect, cells were seeded for colonies.
(§1) Cells were seeded on inovitro dishes and petri dishes 24 h before starting the experiments. Media containing the indicated concentration of each chemotherapy component alone or FOLFOX and control media was added to the cells and the dishes were connected to TTFields (as in SOP-BI-009) or grown in 37° C., 5% CO2 for 72 h. Each treatment included 8 repeats (8 dishes). The media was replaced every 24 h. At the end of the experiment the cells were collected, and cytotoxicity was determined by cell counts, small number of cells were seeded for colonies and the cells (including cells from the media) were stained for Annexin V and 7AAD for apoptosis analysis.
Apoptotic effect: Average of cell fraction of each marker staining (Annexin V and 7AAD) of at least 5 dishes from each treatment was calculated in Excel software. The averages from these repeats was calculated to averages and is presented in stacked bar graph using GraphPed software.

KATO III cells [2] = assay: Cytotoxic effect by cell count after 72 h, with and without TTFields
Experimental: (§2) During the treatment the media of all dishes was replaced every 24 h (“hours”).
(§3) After 72 h of treatment the media and the cells were collected, and cytotoxicity was determined by cell counts.
as §1
(§4) A TTFields generator (Inovitro systems) was used to apply the treatment to the cells.
(§5) Cytotoxic effect: Average and standard deviation of cell number of at least 5 dishes from each treatment was calculated in Excel software. The averages from these repeats was calculated to averages and standard error and is presented as percent from control (no drug treatment) in XY graph of points with error bars using GraphPed software. Significant was determine by 2-way ANOVA followed Multiple comparison using GraphPed software.

KATO III cells [3] = system: KATO III cells
Experimental: as §2, §3, §1, §4, §5

AGS cells [4] = assay: Clonogenic effect (colonies count); assay type: cell-based; conditions: for colonies count: 72 h
Experimental: After 72 h of treatment the media and the cells were collected, and cytotoxicity was determined by cell counts. […] For the testing of the clonogenic effect, cells were seeded for colonies.
(§6) After 6-14 days the colonies were fixed, stained and counted to determine clonogenic effect. The overall effect was calculated by multiplying the cytotoxic effect and the clonogenic effect.
Clonogenic effect: The colonies from each well were counted using ImageJ software. Average and standard deviation of colony number of at least 5 wells from each treatment were calculated in excel software. The averages from these repeats was calculated to averages and standard errors and is presented as percent from control (no drug treatment) in XY graph of points with error bars using GraphPed software. Significant was determine by 2-way ANOVA followed Multiple comparison using GraphPed software.

AGS cells [5] = assay: Overall effect (cytotoxic effect x clonogenic effect); assay type: cell-based; conditions: for overall effect (colonies count multiplying the cytotoxic effect): 72 h
Experimental: as §6
Overall effect: Each colony number was multiply in the percent of cytotoxic effect of its dish and averages and standard deviations of each treatment were calculated in Excel software. […] Significant was determine by 2-way ANOVA followed Multiple comparison using GraphPed software.

AGS cells [6] = assay: Cytotoxic effect by cell count after 72 h, with and without TTFields
Experimental: as §2, §3, §1, §4, §5

AGS cells [7] = system: AGS cells
Experimental: as §2, §3, §1, §4, §5

[8] = 13.5 nM, + TTFields 150 kHz 1.6 V/cm
[9] = 40 nM, + TTFields 150 kHz 1.6 V/cm
[10] = FOLFOX experiment, 1.5 uM, + TTFields 150 kHz 1.6 V/cm
[11] = FOLFOX experiment, 1.5 uM, no TTFields
[12] = 0.5 uM, + TTFields 150 kHz 1.0 V/cm
[13] = 1.5 uM, + TTFields 150 kHz 1.0 V/cm
[14] = 4.5 uM, + TTFields 150 kHz 1.0 V/cm
[15] = 13.5 uM, + TTFields 150 kHz 1.0 V/cm
[16] = 40 uM, + TTFields 150 kHz 1.0 V/cm
[17] = FOLFOX experiment, 0.5 uM, + TTFields 150 kHz 1.0 V/cm
[18] = FOLFOX experiment, 0.5 uM, no TTFields

Q: `O=c1[nH]cc(F)c(=O)[nH]1` [5-FU, 5-fluorouracil] was tested. Which “AnnV− 7AAD− cell fraction” value (KATO III cells [1]; 4.5 nM, no TTFields) did it give?
A: 73.50%

Q: What about the “AnnV+ 7AAD+ cell fraction” value (KATO III cells [1]; [8]) of the same compound?
A: 17.18%

Q: What about the “AnnV+ 7AAD− cell fraction” value (KATO III cells [1]; [8]) of the same compound?
A: 16.21%

Q: And the “AnnV− 7AAD+ cell fraction” value (KATO III cells [1]; [8])?
A: 2.01%

Q: And the “AnnV− 7AAD− cell fraction” value (KATO III cells [1]; [8])?
A: 64.61%

Q: And the “AnnV+ 7AAD+ cell fraction” value (KATO III cells [1]; 13.5 nM, no TTFields)?
A: 11.72%

Q: What about the “AnnV+ 7AAD− cell fraction” value (KATO III cells [1]; 13.5 nM, no TTFields) of the same compound?
A: 12.44%

Q: What about the “AnnV− 7AAD+ cell fraction” value (KATO III cells [1]; 13.5 nM, no TTFields) of the same compound?
A: 2.22%

Q: And the “AnnV− 7AAD− cell fraction” value (KATO III cells [1]; 13.5 nM, no TTFields)?
A: 73.64%

Q: And the “AnnV+ 7AAD+ cell fraction” value (KATO III cells [1]; [9])?
A: 21.25%

Q: And the “AnnV+ 7AAD− cell fraction” value (KATO III cells [1]; [9])?
A: 11.40%

Q: And the “AnnV− 7AAD+ cell fraction” value (KATO III cells [1]; [9])?
A: 3.58%

Q: What about the “AnnV− 7AAD− cell fraction” value (KATO III cells [1]; [9]) of the same compound?
A: 63.76%

Q: What about the “AnnV+ 7AAD+ cell fraction” value (KATO III cells [1]; 40 nM, no TTFields) of the same compound?
A: 12.48%

Q: What about the “AnnV+ 7AAD− cell fraction” value (KATO III cells [1]; 40 nM, no TTFields) of the same compound?
A: 10.55%

Q: And the “AnnV− 7AAD+ cell fraction” value (KATO III cells [1]; 40 nM, no TTFields)?
A: 3.42%

Q: And the “AnnV− 7AAD− cell fraction” value (KATO III cells [1]; 40 nM, no TTFields)?
A: 73.55%

Q: What about the “AnnV+ 7AAD+ cell fraction” value (KATO III cells [1]; [10]) of the same compound?
A: 32.59%

Q: What about the “AnnV+ 7AAD− cell fraction” value (KATO III cells [1]; [10]) of the same compound?
A: 16.09%

Q: What about the “AnnV− 7AAD+ cell fraction” value (KATO III cells [1]; [10]) of the same compound?
A: 1.39%

Q: And the “AnnV− 7AAD− cell fraction” value (KATO III cells [1]; [10])?
A: 49.94%

Q: What about the “AnnV+ 7AAD+ cell fraction” value (KATO III cells [1]; [11]) of the same compound?
A: 22.22%

Q: And the “AnnV+ 7AAD− cell fraction” value (KATO III cells [1]; [11])?
A: 11.36%

Q: And the “AnnV− 7AAD+ cell fraction” value (KATO III cells [1]; [11])?
A: 0.96%

Q: What about the “AnnV− 7AAD− cell fraction” value (KATO III cells [1]; [11]) of the same compound?
A: 65.47%

Q: And the cell count (KATO III cells [2]; 1.5 uM, + TTFields 150 kHz 1.6 V/cm)?
A: 47 % from control

Q: And the cell count (KATO III cells [2]; 1.5 uM, no TTFields)?
A: 70 % from control

Q: What about the cell count (KATO III cells [2]; 4.5 uM, + TTFields 150 kHz 1.6 V/cm) of the same compound?
A: 42 % from control

Q: What about the cell count (KATO III cells [2]; 4.5 uM, no TTFields) of the same compound?
A: 56 % from control

Q: What about the cell count (KATO III cells [2]; 13.5 uM, + TTFields 150 kHz 1.6 V/cm) of the same compound?
A: 34 % from control

Q: What about the cell count (KATO III cells [2]; 13.5 uM, no TTFields) of the same compound?
A: 47 % from control

Q: And the cell count (KATO III cells [2]; 40 uM, + TTFields 150 kHz 1.6 V/cm)?
A: 32 % from control

Q: And the cell count (KATO III cells [2]; 40 uM, no TTFields)?
A: 34 % from control

Q: What about the cell count (KATO III cells [2]; [10]) of the same compound?
A: 50 % from control

Q: And the cell count (KATO III cells [2]; [11])?
A: 73 % from control

Q: And the “cytotoxic effect of drug + TTFields compared to drug alone” value (KATO III cells [3])?
A: significantly higher

Q: What about the colonies count (AGS cells [4]; [12]) of the same compound?
A: 51 % from control

Q: And the colonies count (AGS cells [4]; 0.5 uM, no TTFields)?
A: 95 % from control

Q: What about the colonies count (AGS cells [4]; [13]) of the same compound?
A: 59 % from control

Q: And the colonies count (AGS cells [4]; 1.5 uM, no TTFields)?
A: 90 % from control

Q: And the colonies count (AGS cells [4]; [14])?
A: 35 % from control

Q: And the colonies count (AGS cells [4]; 4.5 uM, no TTFields)?
A: 74 % from control

Q: And the colonies count (AGS cells [4]; [15])?
A: 11 % from control

Q: And the colonies count (AGS cells [4]; 13.5 uM, no TTFields)?
A: 9 % from control

Q: And the colonies count (AGS cells [4]; [16])?
A: 0 % from control

Q: What about the colonies count (AGS cells [4]; 40 uM, no TTFields) of the same compound?
A: 0 % from control

Q: And the colonies count (AGS cells [4]; [17])?
A: 59 % from control

Q: What about the colonies count (AGS cells [4]; [18]) of the same compound?
A: 100 % from control

Q: What about the “colonies number (clonogenic effect and overall effect), drug + TTFields compared to drug alone” value (AGS cells [4]; Two-way ANOVA P<0.001) of the same compound?
A: significant reduction in colonies number

Q: And the “interaction with TTFields based on the overall effect” value (AGS cells [5])?
A: synergistic

Q: And the “overall effect (colonies count multiplying the cytotoxic effect)” value (AGS cells [5]; [12])?
A: 36 % from control

Q: And the “overall effect (colonies count multiplying the cytotoxic effect)” value (AGS cells [5]; 0.5 uM, no TTFields)?
A: 97 % from control

Q: What about the “overall effect (colonies count multiplying the cytotoxic effect)” value (AGS cells [5]; [13]) of the same compound?
A: 30 % from control

Q: And the “overall effect (colonies count multiplying the cytotoxic effect)” value (AGS cells [5]; 1.5 uM, no TTFields)?
A: 81 % from control

Q: What about the “overall effect (colonies count multiplying the cytotoxic effect)” value (AGS cells [5]; [14]) of the same compound?
A: 11 % from control

Q: And the “overall effect (colonies count multiplying the cytotoxic effect)” value (AGS cells [5]; 4.5 uM, no TTFields)?
A: 50 % from control

Q: And the “overall effect (colonies count multiplying the cytotoxic effect)” value (AGS cells [5]; [15])?
A: 2 % from control

Q: What about the “overall effect (colonies count multiplying the cytotoxic effect)” value (AGS cells [5]; 13.5 uM, no TTFields) of the same compound?
A: 2 % from control

Q: And the “overall effect (colonies count multiplying the cytotoxic effect)” value (AGS cells [5]; [16])?
A: 0 % from control

Q: And the “overall effect (colonies count multiplying the cytotoxic effect)” value (AGS cells [5]; 40 uM, no TTFields)?
A: 0 % from control

Q: What about the “overall effect (colonies count multiplying the cytotoxic effect)” value (AGS cells [5]; [17]) of the same compound?
A: 36 % from control

Q: What about the “overall effect (colonies count multiplying the cytotoxic effect)” value (AGS cells [5]; [18]) of the same compound?
A: 87 % from control

Q: And the cell count (AGS cells [6]; [12])?
A: 61 % from control

Q: What about the cell count (AGS cells [6]; 0.5 uM, no TTFields) of the same compound?
A: 90 % from control

Q: What about the cell count (AGS cells [6]; [13]) of the same compound?
A: 47 % from control

Q: What about the cell count (AGS cells [6]; 1.5 uM, no TTFields) of the same compound?
A: 83 % from control

Q: And the cell count (AGS cells [6]; [14])?
A: 27 % from control

Q: What about the cell count (AGS cells [6]; 4.5 uM, no TTFields) of the same compound?
A: 52 % from control

Q: And the cell count (AGS cells [6]; [15])?
A: 15 % from control

Q: What about the cell count (AGS cells [6]; 13.5 uM, no TTFields) of the same compound?
A: 24 % from control

Q: What about the cell count (AGS cells [6]; [16]) of the same compound?
A: 19 % from control

Q: What about the cell count (AGS cells [6]; 40 uM, no TTFields) of the same compound?
A: 25 % from control

Q: And the cell count (AGS cells [6]; [17])?
A: 61 % from control

Q: What about the cell count (AGS cells [6]; [18]) of the same compound?
A: 79 % from control

Q: And the “cytotoxic effect of drug + TTFields compared to drug alone” value (AGS cells [7])?
A: significantly higher
